Measurements reported in PubChem BioAssay (NCI).
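A five-concentration, 48-hour dose response in 96-well plates underlies each endpoint, interpolated linearly between surrounding concentrations. At the GI50, growth is halved. TGI is the concentration that stops growth completely.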

Legend:
Test in all cases: NCI-60 cell line screen, 48 h
COLO 205 colon = tested on: COLO 205 colon
SF-268 CNS = tested on: SF-268 CNS
IGROV1 ovarian = tested on: IGROV1 ovarian
HCT-15 colon = tested on: HCT-15 colon
MCF7 breast = tested on: MCF7 breast
786-0 renal = tested on: 786-0 renal
SF-295 CNS = tested on: SF-295 CNS
A498 renal = tested on: A498 renal
HOP-62 NSCLC = tested on: HOP-62 NSCLC
SF-539 CNS = tested on: SF-539 CNS
SNB-19 CNS = tested on: SNB-19 CNS
HT29 colon = tested on: HT29 colon
SK-MEL-2 melanoma = tested on: SK-MEL-2 melanoma
MOLT-4 leukemia = tested on: MOLT-4 leukemia
HOP-92 NSCLC = tested on: HOP-92 NSCLC
UACC-257 melanoma = tested on: UACC-257 melanoma
NCI-H522 lung = tested on: NCI-H522 lung
TK-10 renal = tested on: TK-10 renal
CAKI-1 renal = tested on: CAKI-1 renal
A549 NSCLC = tested on: A549 NSCLC
KM12 colon = tested on: KM12 colon
BT-549 breast = tested on: BT-549 breast
ACHN renal = tested on: ACHN renal
UACC-62 melanoma = tested on: UACC-62 melanoma
SK-OV-3 ovarian = tested on: SK-OV-3 ovarian
CCRF-CEM leukemia = tested on: CCRF-CEM leukemia
OVCAR-4 ovarian = tested on: OVCAR-4 ovarian
HS 578T breast = tested on: HS 578T breast
K-562 leukemia = tested on: K-562 leukemia
HCC-2998 colon = tested on: HCC-2998 colon
SW-620 colon = tested on: SW-620 colon
OVCAR-5 ovarian = tested on: OVCAR-5 ovarian
T-47D breast = tested on: T-47D breast
HL-60(TB) leukemia = tested on: HL-60(TB) leukemia
SK-MEL-28 melanoma = tested on: SK-MEL-28 melanoma
SNB-75 CNS = tested on: SNB-75 CNS
U251 CNS = tested on: U251 CNS
OVCAR-3 ovarian = tested on: OVCAR-3 ovarian
OVCAR-8 ovarian = tested on: OVCAR-8 ovarian
DU-145 prostate = tested on: DU-145 prostate
SK-MEL-5 melanoma = tested on: SK-MEL-5 melanoma
MDA-MB-468 breast = tested on: MDA-MB-468 breast
RXF 393 renal = tested on: RXF 393 renal
SN12C renal = tested on: SN12C renal
NCI/ADR-RES ovarian = tested on: NCI/ADR-RES ovarian
NCI-H23 lung = tested on: NCI-H23 lung
PC-3 prostate = tested on: PC-3 prostate
NCI-H460 lung = tested on: NCI-H460 lung
NCI-H226 lung = tested on: NCI-H226 lung
M14 melanoma = tested on: M14 melanoma
MDA-MB-231 breast = tested on: MDA-MB-231 breast
HCT-116 colon = tested on: HCT-116 colon
UO-31 renal = tested on: UO-31 renal
EKVX NSCLC = tested on: EKVX NSCLC
SR leukemia = tested on: SR leukemia
LOX IMVI melanoma = tested on: LOX IMVI melanoma
MALME-3M melanoma = tested on: MALME-3M melanoma
RPMI-8226 leukemia = tested on: RPMI-8226 leukemia
MDA-MB-435 = tested on: MDA-MB-435

COc1ccc(-c2nnc3c(/C=C/c4ccc(Br)cc4)nc4ccccc4n23)cc1
GI50 (COLO 205 colon): 4.19 µM
TGI (COLO 205 colon): 15.1 µM
GI50 (SF-268 CNS): 14.4 µM
TGI (SF-268 CNS): 34.7 µM
GI50 (IGROV1 ovarian): 10.7 µM
TGI (IGROV1 ovarian): 22.6 µM
GI50 (HCT-15 colon): 1.47 µM
TGI (HCT-15 colon): 3.25 µM
GI50 (MCF7 breast): 2.8 µM
TGI (MCF7 breast): 14.9 µM
GI50 (786-0 renal): 1.54 µM
TGI (786-0 renal): 3.81 µM
GI50 (SF-295 CNS): 16 µM
TGI (SF-295 CNS): 33.1 µM
GI50 (A498 renal): 22.8 µM
TGI (A498 renal): 91.4 µM
GI50 (HOP-62 NSCLC): 15.5 µM
TGI (HOP-62 NSCLC): 32 µM
GI50 (SF-539 CNS): 2.45 µM
TGI (SF-539 CNS): 6.91 µM
GI50 (SNB-19 CNS): 13.7 µM
TGI (SNB-19 CNS): 26.8 µM
GI50 (HT29 colon): 2.56 µM
TGI (HT29 colon): 9.29 µM
GI50 (SK-MEL-2 melanoma): 10.9 µM
TGI (SK-MEL-2 melanoma): 22.8 µM
GI50 (MOLT-4 leukemia): 2.7 µM
TGI (MOLT-4 leukemia): 12.1 µM
GI50 (HOP-92 NSCLC): 1.14 µM
TGI (HOP-92 NSCLC): 7.29 µM
GI50 (UACC-257 melanoma): 13.1 µM
TGI (UACC-257 melanoma): 25.8 µM
GI50 (NCI-H522 lung): 0.156 µM
TGI (NCI-H522 lung): 0.301 µM
GI50 (TK-10 renal): 13.5 µM
TGI (TK-10 renal): 26.3 µM
GI50 (CAKI-1 renal): 11.3 µM
TGI (CAKI-1 renal): 23.3 µM
GI50 (A549 NSCLC): 12 µM
TGI (A549 NSCLC): 24.4 µM
GI50 (KM12 colon): 12.6 µM
TGI (KM12 colon): 25.1 µM
GI50 (BT-549 breast): 2.37 µM
TGI (BT-549 breast): 15.3 µM
GI50 (ACHN renal): 2.55 µM
TGI (ACHN renal): 9.06 µM
GI50 (UACC-62 melanoma): 5.61 µM
TGI (UACC-62 melanoma): 19.5 µM
GI50 (SK-OV-3 ovarian): 21.7 µM
TGI (SK-OV-3 ovarian): 64 µM
GI50 (CCRF-CEM leukemia): 1.39 µM
TGI (CCRF-CEM leukemia): 4.9 µM
GI50 (OVCAR-4 ovarian): 3.96 µM
TGI (OVCAR-4 ovarian): 16.4 µM
GI50 (HS 578T breast): 16.7 µM
TGI (HS 578T breast): 57 µM
GI50 (K-562 leukemia): 0.431 µM
TGI (K-562 leukemia): 13.1 µM
GI50 (HCC-2998 colon): 12.1 µM
TGI (HCC-2998 colon): 24.5 µM
GI50 (SW-620 colon): 0.728 µM
TGI (SW-620 colon): 2.24 µM
GI50 (OVCAR-5 ovarian): 3.97 µM
TGI (OVCAR-5 ovarian): 16 µM
GI50 (T-47D breast): 10.5 µM
TGI (T-47D breast): 25.5 µM
GI50 (HL-60(TB) leukemia): 3.43 µM
TGI (HL-60(TB) leukemia): 16.8 µM
GI50 (SK-MEL-28 melanoma): 8.85 µM
TGI (SK-MEL-28 melanoma): 21.1 µM
GI50 (SNB-75 CNS): 16 µM
TGI (SNB-75 CNS): 34.1 µM
GI50 (U251 CNS): 6.97 µM
TGI (U251 CNS): 19.7 µM
GI50 (OVCAR-3 ovarian): 3.43 µM
TGI (OVCAR-3 ovarian): 14 µM
GI50 (OVCAR-8 ovarian): 10.4 µM
TGI (OVCAR-8 ovarian): 22.1 µM
GI50 (DU-145 prostate): 5.24 µM
TGI (DU-145 prostate): 17.7 µM
GI50 (SK-MEL-5 melanoma): 10.8 µM
TGI (SK-MEL-5 melanoma): 22.7 µM
GI50 (MDA-MB-468 breast): 2.08 µM
TGI (MDA-MB-468 breast): 8.39 µM
GI50 (RXF 393 renal): 1.24 µM
TGI (RXF 393 renal): 2.53 µM
GI50 (SN12C renal): 2.24 µM
TGI (SN12C renal): 8.9 µM
GI50 (NCI/ADR-RES ovarian): 10.3 µM
TGI (NCI/ADR-RES ovarian): 25.9 µM
GI50 (NCI-H23 lung): 9.39 µM
TGI (NCI-H23 lung): 21.3 µM
GI50 (PC-3 prostate): 11.4 µM
TGI (PC-3 prostate): 23.5 µM
GI50 (NCI-H460 lung): 11.2 µM
TGI (NCI-H460 lung): 23.2 µM
GI50 (NCI-H226 lung): 1.68 µM
TGI (NCI-H226 lung): 4.5 µM
GI50 (M14 melanoma): 2.41 µM
TGI (M14 melanoma): 10.2 µM
GI50 (MDA-MB-231 breast): 4.82 µM
TGI (MDA-MB-231 breast): 17.5 µM
GI50 (HCT-116 colon): 1.47 µM
TGI (HCT-116 colon): 3.2 µM
GI50 (UO-31 renal): 2.93 µM
TGI (UO-31 renal): 16.4 µM
GI50 (EKVX NSCLC): 12.1 µM
TGI (EKVX NSCLC): 26.1 µM
GI50 (SR leukemia): 1.04 µM
TGI (SR leukemia): 3.94 µM
GI50 (LOX IMVI melanoma): 0.883 µM
TGI (LOX IMVI melanoma): 2.11 µM
GI50 (MALME-3M melanoma): 1.3 µM
TGI (MALME-3M melanoma): 2.72 µM
GI50 (RPMI-8226 leukemia): 4.11 µM
TGI (RPMI-8226 leukemia): 18.4 µM
GI50 (MDA-MB-435): 11.7 µM
TGI (MDA-MB-435): 23.9 µM
